Experimental data published in patent US6849732B2, “Metalloproteinase inhibitors, pharmaceutical compositions containing them and their pharmaceutical uses, and methods and intermediates useful for their preparation” (Agouron Pharmaceuticals, Inc., priority 1995, dated 2005).
Where a name gives a salt, the structure may show the parent alone.

Experiments:
matrilysin (Matr.) = biological target: T1, matrilysin (Matr.) (Homo sapiens, UniProt P09237); test: MCA fluorogenic enzyme assay, competitive inhibition analysis (Ki,app), matrilysin; type: biochemical; conditions: MCA peptide substrate, 37° C., pH 7.5, read-out: Enzyme Inhibition Constants (K1) Matr.
T1 sequence (P09237 95-267): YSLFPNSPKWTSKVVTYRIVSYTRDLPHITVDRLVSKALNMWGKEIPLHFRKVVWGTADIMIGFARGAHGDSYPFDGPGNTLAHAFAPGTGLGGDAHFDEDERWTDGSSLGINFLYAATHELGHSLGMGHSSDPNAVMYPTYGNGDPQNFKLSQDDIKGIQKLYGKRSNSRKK
Procedure: Stromelysin enzymatic activity was measured using a modified version of a resonance energy transfer fluorogenic assay as described in FEBS, vol. 296(3), p. 263 (1992), the disclosure of which is incorporated herein by reference. The MCA-peptide substrate is shown below. The fluorescent MCA group is quenched by resonance energy transfer to the 2,4-dinitrophenyl group. Matrix metalloproteinases cleave this substrate at the Gly-Leu bond. Cleavage results in the loss of energy transfer and a large increase in fluorescence of the MCA group. [drawing 56] 7-methoxycoumarin-4-yl-acetyl-pro-leu-gly-leu-3-(2,4-dinitrophenyl)-L-2,3-diaminoproprionyl-ala-arg-NH2
The MCA assay was performed at 37° C. in buffer containing 50 mM Tricine (pH 7.5), 10 mM CaCl2, 200 mM NaCl, and 1% DMSO with the following concentrations of matrix metalloproteinases: 1.4 nM stromelyin, 0.063 nM matrilysin, and 0.030 nM gelatinase A. The concentration of MCA substrate was 10 or 20 μM in a final volume of 1.6 mL. Fluorescence data was collected with Perkin-Elmer LS-5B and LS-5B spectrofluorimeters with λexcitation=328 nm and λemission=393 nm. Spectrofluorimeters were interfaced with IBM-compatible microcomputer systems.
The Km for the MCA peptide substrate with the matrix metalloproteinases is quite high and exceeds its solubility under assay conditions. Consequently, the apparent Ki (Ki,app) was determined to describe the strength of inhibition. However, in this case, Ki,app would be essentially equal to Ki since [S]<<Km. For the determination of Ki,app, the concentration of the inhibitor was varied at a constant and low concentration of substrate and the steady-state rates of fluorescence change determined. In most cases absorptive quench due to the presence of ligand was not observed. For slow-binding inhibitors, onset of inhibition curves were collected for at least 45 minutes so that equilibrium was established. Steady-state rates of fluorescence change were obtained by fitting a curve to an equation for a single exponential decay containing a linear phase. The fitted value of the linear phase was taken as the steady-state rate. The steady-state rates were fitted to the Michaelis equation describing competitive inhibition by non-linear methods. Data resulting from tight-binding inhibition was analyzed, and Ki,app determined by fitting the data to the tight-binding equation of Morrison See (Biochem. Biophys. Acta, vol. 185, pp. 269-286 (1969)) by non-linear methods.

stromelysin (HSLN) = stromelysin (HSLN) (Homo sapiens, UniProt P08254); test: MCA fluorogenic enzyme assay, competitive inhibition analysis (Ki,app), stromelysin; type: biochemical; conditions: Ki,app; MCA peptide substrate, 37° C., pH 7.5; read-out: Enzyme Inhibition Constants (K1) HSLN
stromelysin (HSLN), sequence (P08254 100-477): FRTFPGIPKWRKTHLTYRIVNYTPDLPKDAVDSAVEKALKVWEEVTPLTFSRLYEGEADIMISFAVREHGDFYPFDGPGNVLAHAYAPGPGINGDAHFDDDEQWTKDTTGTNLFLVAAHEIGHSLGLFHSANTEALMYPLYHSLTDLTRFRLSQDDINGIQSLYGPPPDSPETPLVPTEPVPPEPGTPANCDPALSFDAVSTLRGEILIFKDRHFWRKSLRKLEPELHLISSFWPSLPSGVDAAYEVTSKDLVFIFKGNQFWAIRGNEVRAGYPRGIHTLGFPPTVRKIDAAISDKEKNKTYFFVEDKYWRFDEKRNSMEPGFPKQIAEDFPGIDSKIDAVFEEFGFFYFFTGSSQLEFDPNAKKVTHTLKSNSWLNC

Coll3 = Coll3 (Homo sapiens, UniProt P45452); test: MCA fluorogenic enzyme assay, competitive inhibition analysis (Ki,app), Coll3; type: biochemical; conditions: MCA peptide substrate, 37° C., pH 7.5, read-out: Enzyme Inhibition Constants (K1) Coll3
gelatinase A (HG72kD) = biological target: T2, gelatinase A (HG72kD) (Homo sapiens, UniProt P08253); test: MCA fluorogenic enzyme assay, competitive inhibition analysis (Ki,app), gelatinase A; type: biochemical; conditions: MCA peptide substrate, 37° C., pH 7.5, read-out: Enzyme Inhibition Constants (K1) HG72kD
T2 sequence (P08253 110-660): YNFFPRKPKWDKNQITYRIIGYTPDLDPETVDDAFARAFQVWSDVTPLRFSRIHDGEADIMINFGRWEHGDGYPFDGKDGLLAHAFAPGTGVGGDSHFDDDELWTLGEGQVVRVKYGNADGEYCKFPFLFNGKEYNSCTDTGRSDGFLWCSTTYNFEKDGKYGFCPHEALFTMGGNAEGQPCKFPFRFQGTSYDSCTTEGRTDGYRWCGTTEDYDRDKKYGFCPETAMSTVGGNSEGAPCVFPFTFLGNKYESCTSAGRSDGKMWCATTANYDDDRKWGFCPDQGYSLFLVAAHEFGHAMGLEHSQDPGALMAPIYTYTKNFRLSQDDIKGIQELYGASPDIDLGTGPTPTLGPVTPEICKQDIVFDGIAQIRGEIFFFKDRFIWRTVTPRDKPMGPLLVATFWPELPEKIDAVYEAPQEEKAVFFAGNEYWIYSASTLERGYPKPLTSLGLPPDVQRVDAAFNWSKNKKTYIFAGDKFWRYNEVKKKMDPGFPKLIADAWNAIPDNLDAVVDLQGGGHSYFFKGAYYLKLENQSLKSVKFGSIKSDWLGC

HFC = biological target: T3, HFC (Homo sapiens, UniProt P03956); test: MCA fluorogenic enzyme assay, competitive inhibition analysis (Ki,app), HFC; type: biochemical; conditions: MCA peptide substrate, 37° C., pH 7.5, read-out: Enzyme Inhibition Constants (K1) HFC
T3 sequence (P03956 100-469): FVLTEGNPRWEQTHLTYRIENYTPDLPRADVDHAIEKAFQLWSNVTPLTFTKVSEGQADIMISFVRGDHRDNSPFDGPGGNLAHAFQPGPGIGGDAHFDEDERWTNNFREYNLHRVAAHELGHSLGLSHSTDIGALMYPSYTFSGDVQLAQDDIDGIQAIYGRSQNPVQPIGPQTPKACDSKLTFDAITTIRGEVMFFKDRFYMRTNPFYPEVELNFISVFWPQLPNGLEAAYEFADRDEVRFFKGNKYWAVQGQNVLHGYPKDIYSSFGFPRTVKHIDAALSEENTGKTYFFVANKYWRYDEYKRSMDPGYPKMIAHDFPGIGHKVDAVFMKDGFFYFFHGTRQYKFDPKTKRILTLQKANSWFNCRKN

[1] = test system: murine Lewis lung carcinoma (NIH) tumor line; test: Tumor model: subcutaneous Lewis lung carcinoma, primary tumor growth and lung metastases; type: in vivo, female BDF1 mice; conditions: 50 mg/kg; for Tumor Growth Delay / % Inhibition-Lung Metastases: i.p., daily, Day 1-Day 21; for Tumor Growth Delay: delay in reaching 1000 mm^3 tumor volume between control and treated animals; for % Inhibition-Lung Metastases: metastases counted 22 days after tumor implantation
Text: Primary subcutaneous tumors were established in female BDF1 mice by trocar inoculation of the murine Lewis lung carcinoma (NIH) tumor line. This tumor line produces spontaneous lung metastases which arise from the primary tumor. Primary tumor growth was monitored by measuring the length and width of the subcutaneous tumor using calipers; lung metastases were counted at the end of the experiment (22 days after tumor implantation) by removing the lungs and counting the lesions using a dissecting microscope. The test compound was administered daily, i.p., beginning 24 hours after tumor implantation (day 1) and continuing through day 21. Primary tumor volumes and number of lung metastases were compared to control animals using an ANOVA followed by a comparison of means using the F statistic. […] All drugs were administered at 50 mg/kg, i.p., daily, Day 1-Day 21.

| Structure (SMILES) | Ki (matrilysin (Matr.)) [nM] | Ki (stromelysin (HSLN)) [nM] | Ki (Coll3) [nM] | Ki (gelatinase A (HG72kD)) [nM] | Ki (HFC) [nM] | Tumor Growth Delay [1] | % Inhibition-Lung Metastases [1] | tumor growth delay relative to control (significance, in words) ([1]; p<0.025) | number of lung metastases relative to the control (significance, in words) ([1]; p<0.05) |
| --- | --- | --- | --- | --- | --- | --- | --- | --- | --- |
| O=C(NO)C1CSCCN1S(=O)(=O)c1ccc(Oc2ccc(F)cc2)cc1 (racemic) [Example 13(c), 3(R/S)-N-hydroxy-4-(4-(4-fluorophenoxy)benzenesulfonyl)-tetrahydro-2H-1,4-thiazine-3-carboxamide] | 313 | 0.53 | 0.035 | 0.028 | 40 | – | – | – | – |
| CC1(C)SCCN(S(=O)(=O)c2ccc(Oc3ccc(Br)cc3)cc2)[C@H]1C(=O)NO [Example 16(a), 3(S)-N-hydroxy-4-(4-(4-bromophenoxy)benzenesulfonyl)-2,2-dimethyl-tetrahydro-2H-1,4-thiazine-3-carboxamide] | 2.8 | 0.017 | 0.001 | 0.003 | 0.56 | – | – | – | – |
| CC(C)(C)OC(=O)N1CCN(S(=O)(=O)c2ccc(Oc3ccc(Cl)cc3)cc2)[C@@H](C(=O)NO)C1 [Example 9(a), 2(R)-N-hydroxy-1-(4-(4-chlorophenoxy)benzenesulfonyl)-4-(t-butoxycarbonyl)-piperazine-2-carboxamide] | 142 | 0.31 | 0.006 | 0.007 | – | 7.2 days (p < 0.025) | 77.6% (p < 0.05) | statistically significant | statistically significant |
| O=C(NO)[C@H]1CNCCN1S(=O)(=O)c1ccc(Oc2ccc(F)cc2)cc1 [Example 10(b), 2(R)-N-hydroxy-1-(4-(4-fluorophenoxy)benzenesulfonyl)-piperazine-2-carboxamide hydrochloride] | 365 | 0.98 | 0.257 | 0.232 | 44 | – | – | – | – |
| CC1(C)[C@H](C(=O)NO)N(S(=O)(=O)c2ccc(Oc3ccc(Br)cc3)cc2)CC[S@@+]1[O-] [Example 17(a), 1(R),3(S)-N-hydroxy-4-(4-(4-bromophenoxy)benzenesulfonyl)-2,2-dimethyl-1-oxo-tetrahydro-2H-1,4-thiazine-3-carboxamide] | 11 | 0.056 | 0.01 | 0.009 | 3.6 | – | – | – | – |
| O=C(NO)[C@H]1COCCN1S(=O)(=O)c1ccc(Oc2ccc(Cl)cc2)cc1 [8(a), 3(R)-N-hydroxy-4-(4-(4-chlorophenoxy)benzenesulfonyl)-morpholine-3-carboxamide] | 77 | 0.093 | 0.021 | 0.031 | 8.9 | -0.1 days | 7.5% | – | – |
| O=C1C[C@H](C(=O)NO)N(S(=O)(=O)c2ccc(Oc3ccccc3)cc2)CN1 [Example 15(a), 6(R)-(N-hydroxycarbamoyl)-1-(4-phenoxy)benzenesulfonyl-tetrahydropyrimidin-4-one] | 1300 | 4.6 | 0.124 | 0.057 | 210 | – | – | – | – |
| CS(=O)(=O)N1CCN(S(=O)(=O)c2ccc(Oc3ccc(Cl)cc3)cc2)[C@@H](C(=O)NO)C1 [Example 12(a), 2(R)-N-hydroxy-1-(4-(4-chlorophenoxy)benzenesulfonyl)-4-(methanesulfonyl)-piperazine-2-carboxamide] | 28 | 0.043 | 0.002 | 0.003 | 2.5 | – | – | – | – |
| CS(=O)(=O)N1CCN(S(=O)(=O)c2ccc(Oc3ccc(F)cc3)cc2)[C@@H](C(=O)NO)C1 [Example 12(b)] | 52 | 0.13 | 0.005 | 0.007 | 4.7 | – | – | – | – |
| CN1CCN(S(=O)(=O)c2ccc(Oc3ccc(Cl)cc3)cc2)[C@@H](C(=O)NO)C1 [Example 11(a), 2(R)-N-hydroxy-1-(4-(4-chlorophenoxy)benzenesulfonyl)-4-methyl-piperazine-2-carboxamide hydrochloride] | 993 | 0.67 | 0.02 | 0.025 | 130 | – | – | – | – |
| CC(C)(C)OC(=O)N1CCN(S(=O)(=O)c2ccc(Oc3ccccn3)cc2)C(C(=O)NO)C1 (racemic) [Example 9(d), 2(R/S)-N-hydroxy-1-(4-(pyrid-2-yl)oxybenzenesulfonyl)-4-(t-butoxycarbonyl)-piperazine-2-carboxamide] | 2850 | 17 | 1.64 | 0.716 | 550 | – | – | – | – |
| O=C(NO)[C@@H]1C[S@+]([O-])CCN1S(=O)(=O)c1ccc(Oc2ccc(Br)cc2)cc1 (racemic) [Example 14(a), 1(R/S),3(R/S)-N-hydroxy-1-oxo-4-(4-(4-bromophenoxy)benzene-sulfonyl)-tetrahydro-2H-1,4-thiazine-3-carboxamide] | 109 | 0.41 | 0.017 | 0.013 | 23 | – | – | – | – |
| CC(C)(C)OC(=O)N1CCN(S(=O)(=O)c2ccc(Oc3ccc(C#N)cc3)cc2)C(C(=O)NO)C1 (racemic) [Example 9(c), 2(R/S)-N-hydroxy-1-(4-(4-cyanophenoxy)benzenesulfonyl)-4-(t-butoxycarbonyl)-piperazine-2-carboxamide] | 3570 | 14 | 1.97 | 0.696 | 580 | – | – | – | – |
